Assay results published in ChEMBL document CHEMBL1153530, “Pursuing aldose reductase inhibitors through in situ cross-docking and similarity-based virtual screening” (J Med Chem, 2009).

Target: Aldo-keto reductase family 1 member B1 (Rattus norvegicus, UniProt P07943)
Assay: Inhibition of ALR2 from Sprague-Dawley albino rat lens extract by spectrophotometrically

IC50 | Compound
52.7 µM | N#CC(C#N)=CNc1ccc(S(=O)(=O)c2ccc(NC=C(C#N)C#N)cc2)cc1
3.92 µM | O=C(O)[C@@H]1CSCN1C(=O)OCC1c2ccccc2-c2ccccc21
48.1 µM | O=[N+]([O-])c1c(Sc2ccccc2)sc(Sc2ccccc2)c1[N+](=O)[O-]
1.19 µM | O=C(O)CCCc1nc(-c2cnc3n(c2=O)CCS3)no1
31.1 µM | Cc1ccc(S(=O)(=O)Oc2c(Cc3ccccc3)c(=O)n(C)c3ccccc23)cc1
85.3 µM | O=C(O)C[C@@H](CC(=O)Nc1ccc2ccccc2n1)c1ccccc1
107 µM | O=C(O)C(Cc1ccc([N+](=O)[O-])cc1)NS(=O)(=O)c1ccccc1 (stereo unspecified)
41.4 µM | O=C(O)[C@H]1Cc2ccccc2N1C(=O)OCc1ccccc1
77.6 µM | COc1cccc2c1c(NC(=O)CSCC(=O)O)nn2C
35.6 µM | O=S(=O)(Oc1ccc2nonc2c1)c1ccc(Cl)s1

Compound | IC50
CN(C)C(=O)Oc1ccc2nnc3ccnn3c2c1 | 38.7 µM
